Active and inactive are the calls of the source.
Key:
[1] = molecular target: Luciferin 4-monooxygenase (Photinus pyralis, UniProt P08659); test: Counter Screen for Luciferase-based Assay Positives. [Related pubchem assays: 620, 618, 411 ]
HT-1080 = test: HT1080 cell viability loss – fluorescence readout (AID 620); format: functional, cell-based; details: Homo sapiens
[2] = M. tuberculosis H37Rv growth inhibitors, H37Rv strain (AID 1626); format: functional
SUMO-activating enzyme [3] = molecular target: T1, SUMO-activating enzyme (Homo sapiens, UniProt Q9UBT2); test: blockers of UBC9-mediated SUMO conjugation – biochemical, AlphaScreen, SUMOylation inhibitor project, confirmation (AID 2018); format: functional
T1 sequence (Q9UBE0 whole entry): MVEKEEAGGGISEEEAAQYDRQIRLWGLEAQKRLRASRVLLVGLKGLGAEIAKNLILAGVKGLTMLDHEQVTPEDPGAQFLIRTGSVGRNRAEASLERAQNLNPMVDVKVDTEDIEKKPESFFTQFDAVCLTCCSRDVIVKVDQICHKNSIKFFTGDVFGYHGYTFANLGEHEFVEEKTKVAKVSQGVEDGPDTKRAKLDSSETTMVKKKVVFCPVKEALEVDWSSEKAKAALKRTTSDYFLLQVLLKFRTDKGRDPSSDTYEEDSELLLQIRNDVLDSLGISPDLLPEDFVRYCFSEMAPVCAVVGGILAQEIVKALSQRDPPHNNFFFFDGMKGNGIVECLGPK
T1 sequence (Q9UBT2 whole entry): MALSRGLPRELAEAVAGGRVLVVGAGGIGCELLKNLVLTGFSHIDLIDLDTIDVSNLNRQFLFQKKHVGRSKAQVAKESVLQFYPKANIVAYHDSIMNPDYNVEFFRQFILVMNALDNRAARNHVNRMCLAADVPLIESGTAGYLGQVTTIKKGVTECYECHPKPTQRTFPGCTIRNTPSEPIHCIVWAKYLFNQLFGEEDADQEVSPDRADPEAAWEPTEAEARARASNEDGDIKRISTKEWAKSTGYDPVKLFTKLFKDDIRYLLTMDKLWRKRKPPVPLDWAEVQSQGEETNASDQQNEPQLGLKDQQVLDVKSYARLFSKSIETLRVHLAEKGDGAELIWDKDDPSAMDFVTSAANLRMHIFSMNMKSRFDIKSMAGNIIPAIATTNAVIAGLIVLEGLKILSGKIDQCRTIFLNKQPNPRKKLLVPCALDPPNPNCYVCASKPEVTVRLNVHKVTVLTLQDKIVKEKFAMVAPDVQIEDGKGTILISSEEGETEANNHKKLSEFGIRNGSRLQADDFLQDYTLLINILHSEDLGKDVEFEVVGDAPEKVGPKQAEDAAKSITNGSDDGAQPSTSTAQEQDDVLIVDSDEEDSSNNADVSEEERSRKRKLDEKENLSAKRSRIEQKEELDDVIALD

SUMO-activating enzyme [4] = molecular target: T1, SUMO-activating enzyme; test: blockers of SAE1/SAE2–UBC9 SUMO transfer – biochemical, HTRF, uHTS, primary screen (AID 2006); format: protein-complex assay
[5] = molecular target: Induced myeloid leukemia cell differentiation protein Mcl-1 (Homo sapiens, UniProt Q07820); test: blockers of MCL1 binding to BIM peptide – biochemical, fluorescence polarization, BIM-BH3 peptide, 1536-well, dose response (AID 2217)
Chain of Induced myeloid leukemia cell differentiation protein Mcl-1 (Q07820 whole entry): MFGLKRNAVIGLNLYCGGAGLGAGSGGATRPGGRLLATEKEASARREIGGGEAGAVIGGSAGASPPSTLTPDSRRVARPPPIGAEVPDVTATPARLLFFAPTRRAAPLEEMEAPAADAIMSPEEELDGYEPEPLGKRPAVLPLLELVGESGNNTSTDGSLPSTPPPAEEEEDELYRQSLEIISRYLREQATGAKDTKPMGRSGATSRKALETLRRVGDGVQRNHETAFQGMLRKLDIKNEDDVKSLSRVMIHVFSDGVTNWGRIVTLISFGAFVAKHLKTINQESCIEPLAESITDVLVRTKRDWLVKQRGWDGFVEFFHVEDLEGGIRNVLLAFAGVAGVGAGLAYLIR

Bcl-2-like protein 1 = Bcl-2-like protein 1 (Homo sapiens, UniProt Q07817); test: blockers of BCLXL peptide binding – biochemical, fluorescence polarization, 1536-well, selectivity assay for MCL1 inhibitor project, dose response (AID 2218)
Chain of Bcl-2-like protein 1 (Q07817 whole entry): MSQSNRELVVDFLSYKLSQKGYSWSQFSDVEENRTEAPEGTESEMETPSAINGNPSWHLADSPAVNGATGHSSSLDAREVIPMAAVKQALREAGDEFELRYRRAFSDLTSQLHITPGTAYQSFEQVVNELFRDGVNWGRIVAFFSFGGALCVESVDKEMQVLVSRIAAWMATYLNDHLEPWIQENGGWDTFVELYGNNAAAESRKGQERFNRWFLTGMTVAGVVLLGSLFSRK

Estrogen receptor beta [6] = molecular target: T2, Estrogen receptor beta (Homo sapiens, UniProt Q92731);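 also: recombinant ER-beta bound to coactivator SRC1 peptide in presence of estradiol agonist; inhibitors block coactivator peptide binding and lower the FRET signal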
T2 sequence (Q92731 whole entry): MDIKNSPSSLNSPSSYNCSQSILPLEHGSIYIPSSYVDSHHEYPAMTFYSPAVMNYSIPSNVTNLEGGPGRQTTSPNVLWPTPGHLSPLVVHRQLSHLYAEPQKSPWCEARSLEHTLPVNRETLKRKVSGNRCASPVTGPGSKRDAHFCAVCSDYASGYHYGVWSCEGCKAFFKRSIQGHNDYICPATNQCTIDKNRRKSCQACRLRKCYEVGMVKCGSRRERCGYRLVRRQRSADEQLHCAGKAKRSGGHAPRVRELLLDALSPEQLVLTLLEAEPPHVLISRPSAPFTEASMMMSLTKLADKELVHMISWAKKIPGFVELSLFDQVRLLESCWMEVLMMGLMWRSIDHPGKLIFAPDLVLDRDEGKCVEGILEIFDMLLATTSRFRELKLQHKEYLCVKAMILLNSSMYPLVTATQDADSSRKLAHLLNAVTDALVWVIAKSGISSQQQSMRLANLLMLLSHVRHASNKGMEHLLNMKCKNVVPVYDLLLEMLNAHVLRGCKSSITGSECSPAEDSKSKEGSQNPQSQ

Estrogen receptor beta [7] = molecular target: T2, Estrogen receptor beta; test: blockers of SRC-3 recruitment to ERβ – biochemical, ELISA, streptavidin-HRP readout, orthogonal assay, confirmation (AID 1060)
[8] = molecular target: T3, Carboxy-terminal domain RNA polymerase II polypeptide A small phosphatase 1 (Homo sapiens, UniProt Q9GZU7); test: CTDSP1 inhibitors, concentration-response, biochemical, absorbance readout, ultra-high-throughput screen actives (AID 540297); format: functional
T3 sequence (Q9GZU7 whole entry): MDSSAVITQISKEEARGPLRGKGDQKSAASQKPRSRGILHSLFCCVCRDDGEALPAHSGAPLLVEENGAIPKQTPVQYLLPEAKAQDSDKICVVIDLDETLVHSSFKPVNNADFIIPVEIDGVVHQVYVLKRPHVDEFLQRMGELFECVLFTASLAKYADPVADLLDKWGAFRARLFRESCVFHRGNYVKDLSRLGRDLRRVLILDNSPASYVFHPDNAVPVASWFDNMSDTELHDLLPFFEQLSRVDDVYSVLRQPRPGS

Chain of Luciferin 4-monooxygenase (P08659 whole entry): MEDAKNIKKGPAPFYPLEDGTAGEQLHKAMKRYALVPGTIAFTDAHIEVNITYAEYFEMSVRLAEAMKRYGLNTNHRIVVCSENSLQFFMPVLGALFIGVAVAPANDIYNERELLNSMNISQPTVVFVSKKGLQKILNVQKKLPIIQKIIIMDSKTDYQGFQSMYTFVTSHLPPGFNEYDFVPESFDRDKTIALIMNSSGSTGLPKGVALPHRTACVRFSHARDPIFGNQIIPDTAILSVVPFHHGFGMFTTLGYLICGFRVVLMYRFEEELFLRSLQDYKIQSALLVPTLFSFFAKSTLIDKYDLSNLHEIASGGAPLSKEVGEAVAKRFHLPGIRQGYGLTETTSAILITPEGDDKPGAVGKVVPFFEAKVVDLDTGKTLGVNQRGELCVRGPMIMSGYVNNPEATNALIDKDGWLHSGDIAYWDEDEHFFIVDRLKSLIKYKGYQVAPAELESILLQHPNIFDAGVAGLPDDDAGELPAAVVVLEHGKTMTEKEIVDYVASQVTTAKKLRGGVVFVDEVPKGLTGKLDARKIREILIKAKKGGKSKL

SMILES: Clc1ccccc1OCc1nc(-c2ccccn2)no1
- EC50 [1]: > 100 µM (not active)
- EC50 (HT-1080): > 50 µM (not active)

SMILES: COc1ccc(N2CCN(c3nc(-c4cccs4)nc4ccccc34)CC2)cc1
- IC50 [2]: > 100 µM (active)

SMILES: Cc1ccc(C(=O)O)cc1-c1ccc(/C=C2\SC(=O)N(CC(=O)Nc3ccc4c(c3)OCO4)C2=O)o1
- IC50 (SUMO-activating enzyme [3]): 4.35 µM (active)
- IC50 (SUMO-activating enzyme [4]): 10.3 µM (active)
- IC50 [5]: > 4.03 µM (active)
- IC50 (Bcl-2-like protein 1): > 109 µM (not active)

SMILES: CCOC(=O)C1CCCN(C(=O)c2ccc(CS(=O)(=O)c3ccc(C)cc3)o2)C1 (stereo not given)
- IC50 (Estrogen receptor beta [6]): 13.7 µM (active)
- IC50 (Estrogen receptor beta [7]): < 0.023 µM (not active)
- IC50 [8]: 7.41 µM (active)
